Assay results taken from patent US5898069A, “Phosphate assay” (Medical Research Council, priority 1993, dated 1999).
Several values for one entry are separate records, joined by “and”; a condition that tells them apart may be missing. Equal entries are not always repeated. Where two headings read alike, the source gives them in different places.

How the values were obtained:
CPM-PBP = biological target: T1, CPM-PBP (Escherichia coli, UniProt P0AG82, A222C); format: binding, E. coli
T1 construct: A197 is located at position 197 numbering from the N-terminus of the mature PBP; made in house; host or cells: E. coli strain ANCC75, plasmid pSN5182/N, periplasm
Protocol: Analysis of the effects of Pi analogues and solution composition was performed as for MDCC-PBP.

MDCC-PBP [1] = biological target: T2, MDCC-PBP (Escherichia coli, UniProt P0AG82, A222C); format: binding, E. coli
T2 construct: A197 is located at position 197 numbering from the N-terminus of the mature PBP; made in house; host or cells: E. coli strain ANCC75, plasmid pSN5182/N, periplasm
Protocol: The Pi dependent fluorescence change was measured for a variety of conditions at a single concentration of Pi (Table 2).
(§1) The solutions contained 2 μM MDCCPBP (except for [b] 10 μM and [c]
The fluorescence change was measured at 465 nm with excitation at
[a] The solution was preincubated with the Pi mop.

PBP mutant D292C = biological target: T3, PBP mutant D292C (Escherichia coli, UniProt P0AG82, D317C); format: binding, E. coli
T3 construct: from the Nterminus of the mature protein; made in house; host or cells: E. coli strain ANCC75, plasmid pSN5182/N, periplasm
Source text: (e) Using the Pi mop, the fluorescence change was 65%.

[2] = test system: purine nucleoside phosphorylase; test: Phosphorolysis of 7-methyl guanosine by purine nucleoside phosphorylase (Pi mop), absorbance change at 260 nm; format: biochemical, bacterial; details: pH 8.0, 20 mM Tris.HCl, 1 μM MgCl2, 30° C.
MDCC-PBP [3] = biological target: T2, MDCC-PBP; test: Titration of arsenate in a solution of MDCC-PBP (fluorescence change); format: binding, E. coli; details: read-out: dissociation constant
Source text: (§2) Because very small levels of Pi contamination can affect the observed change on adding Pi and because of variability in the protein activity, the maximum percent increase of fluorescence varies from 400-500%0 Although PBP is very specific for Pi (Luecke & Quiocho, 1990), it was to be used as a probe in the presence of other phosphate species, such as esters or purine nucleotides and so it was important to know at what levels these might interfere with Pi measurements. Several Pi analogues were also tested (Table 2) and only arsenate and vanadate produced significant increases. For a titration of arsenate in a solution of MDCC-PBP, the fluorescence change was used to obtain a dissociation constant of 3 μM. In all cases except arsenate, when subsequently Pi was added, the full fluorescent change was observed. The Pi dependent fluorescence change was measured for a variety of conditions at a single concentration of Pi (Table 2). The change is only slightly affected by pH (7-8) or ionic strength.

[4] = Pi dependent fluorescence change of labelled PBP in various solution compositions; format: binding; details: for % fluorescence increase: 100 μM Pi added
Protocol: 3.2 μM MDCC-PBP was in 10 mM PIPES, 1 mM MgCl2 (pH 7.0) at 22° C. Pi was added to 50 μM;
as §2, §1
3.2 μM) in 20 mM PIPES (pH 7.0) except where indicated. The solutions
in B had 100 μM Pi added to produce the indicated fluorescence
change. […]

[5] = Stopped-flow kinetics of Pi binding to labelled PBP and its release
Protocol: A. 0.1 μM MDCC-PBP (mixing chamber concentration) in 10 mM PIPES, pH 7.0 was rapidly mixed at 21° C. with different concentrations of Pi in this buffer in a stopped flow apparatus, while fluorescence emission was monitored using a 455 nm cut-off filter, with excitation at 436 nm using a mercury lamp. The curve show a time course with 0.25 μM Pi. […] The best-fit single exponential (65.3 s^-1) is shown by the dashed line, almost completely hidden by the experimental curve.
B. The release kinetics were measured by rapidly mixing 0.125 μM Pi, 0.25 μM MDCC-PBP with 10 μM wild-type PBP (mixing chamber concentrations) at 22° C. Other conditions were as above The best-fit single exponential (21.4 s^-1) is shown by the dashed line, almost completely hidden by the experimental curve;
In order to use the probe to measure Pi release from ATPases and GTPases in real time it was important to know the kinetics of Pi interaction with the labeled protein. Because of the fast rates only part of the exponential is observed: a significant proportion of the reaction occurs during the dead time of the instrument (i.e. the time taken for the solution to flow between mixing and the observation chamber).
The dissociation rate of the MDCC-PBP.Pi complex was measured directly in the stopped flow apparatus by rapid mixing of this complex with excess wild-type PBP. Pi is released from the fluorescent complex and binds to the wild-type protein with a rate constant limited by the rate of release (FIG. 6B). The observed rate was 21.3±0.1 (S.E.M.) s^-1 (22° C., […], pH 7.0) for wild-type concentrations from 1.25 to 10 μM, with 0.25 μM MDCC-PBP and 0.125 μM Pi. Because this rate is constant over a range of wild-type concentrations and because the rate is much slower than that expected for Pi binding, assuming the wild-type PBP has similar rate constant to the MDCC-PBP, the observed rate constant probably represents Pi release.

[6] = Fluorescence titration of Pi to labelled PBP to obtain the dissociation constant; format: binding; details: for Kd: approximate
Protocol: The solution at 20° C. contained […] MDCC-PBP, 1 mM MgCl2, 10 mM PIPES pH 7.0. Aliquots of Pi were added and the fluorescence emission was measured at 465 nm with excitation at 425 nm. The data was corrected for the small amount of dilution;
The solution at 25° C. in 10 mM PIPES, pH 7.0, 1 mM MgCl2 contained 0.28 μM MDCC-PBP. Aliquots of Pi were added and the fluorescence emission was measured as in FIG. 3.
The fluorescence titrations of Pi with CPM-PBP (and MDCC-PBP) were fitted to the following equations using Enzfitter software:
Ratio of fluorescence at a given [Pi ] to that at zero Pi =(Q[Ep ]+[E]-[Ep ])/[E] where
[E ]P=([P]+[E]+K-√(([P]+[E]+K)^2 -4[P][E]))/2
[E]=concentration of CPM-PBP
Q=ratio of fluorescence for CPM-PBP.Pi to that for the unliganded CPM-PBP
The product was characterized in several ways. […] The dissociation constant was determined by titrating Pi at low [MDCC-PBP] and measuring fluorescence (FIG. 4). […] Because Pi binding is very tight, these dissociation constants can be considered only approximate: the fluorescence titration could not be done at sufficiently low concentrations to obtain accurate values of Kd.

[7] = Storage stability of labelled protein; format: physicochemical
Source text: The Pi -sensitive labeled mutant, MDCC-PBP was purified further and tested as described in the Experimental Procedures to show it was a singly-labeled protein with no unlabeled protein or unbound fluorophore. The further purification is important as the unlabeled protein will also bind Pi. Unbound fluorophore would reduce the percentage fluorescence change by increasing the background and it might also slowly react with or bind to other components in the experimental system. The ion exchange chromatography separated MDCC-PBP completely from unlabeled PBP and unbound fluorophore. Thus the final labeled protein has a ratio of absorbance maxima, 280/430 nm of 1.8. The fluorescence excitation maximum is 425 nm and the emission maximum is 474 nm and the fluorescence change with excess Pi at pH 7.0 for the conditions in FIG. 2 is 5.3-fold with a shift of maximum emission to 464 nm. The labeled protein could be stored at […] and was stable on ice for at least 5 days.

[8] = Competition titration of MDCC-PBP.Pi with wild-type PBP; format: binding
[9] = addition 100 μM, 6 μM CPM-PBP, 10 mM Tris.HCl pH 8.0
[10] = addition 100 μM, preincubated with the Pi mop, 2 μM MDCC-PBP, 20 mM PIPES pH 7.0
[11] = addition 1 mM, 6 μM CPM-PBP, 10 mM Tris.HCl pH 8.0
[12] = addition 100 μM, 2 μM MDCC-PBP, 20 mM PIPES pH 7.0

T2 sequence (P0AG82 26-346 A222C): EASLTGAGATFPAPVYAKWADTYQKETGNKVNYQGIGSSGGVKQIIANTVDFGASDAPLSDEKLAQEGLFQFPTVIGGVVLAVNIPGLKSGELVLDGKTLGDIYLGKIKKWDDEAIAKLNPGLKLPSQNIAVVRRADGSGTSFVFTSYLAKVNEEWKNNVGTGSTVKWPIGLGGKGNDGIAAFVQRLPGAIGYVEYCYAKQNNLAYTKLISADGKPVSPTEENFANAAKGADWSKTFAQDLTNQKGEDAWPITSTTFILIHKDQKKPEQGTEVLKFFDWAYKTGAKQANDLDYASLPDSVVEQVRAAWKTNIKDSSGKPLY
T1 sequence (P0AG82 26-346 A222C): as above
T3 sequence (P0AG82 26-346 D317C): as the sequence (P0AG82 26-346 A222C) above, with C197A, D292C counted along it

Nc1ncnc2c1ncn2[C@@H]1O[C@H](COP(=O)(O)OP(=O)(O)O)[C@@H](O)[C@H]1O [ADP]
% fluorescence increase (CPM-PBP; [9]): 4%
% fluorescence increase (MDCC-PBP [1]; [10]): 3%

Nc1ncnc2c1ncn2[C@@H]1O[C@H](COP(=O)(O)OP(=O)(O)OP(=O)(O)O)[C@@H](O)[C@H]1O [ATP]
% fluorescence increase (CPM-PBP; [9]): 5%
% fluorescence increase (CPM-PBP; [11]): 13%
% fluorescence increase (MDCC-PBP [1]; addition 100 μM, preincubated with the Pi mop, 10 μM MDCC-PBP, 20 mM PIPES pH 7.0): 2%
% fluorescence increase (MDCC-PBP [1]; addition 1 mM, preincubated with the Pi mop, 10 μM MDCC-PBP, 20 mM PIPES pH 7.0): 11%

Nc1nc2c(ncn2[C@@H]2O[C@H](COP(=O)(O)OP(=O)(O)O)[C@@H](O)[C@H]2O)c(=O)[nH]1 [GDP]
% fluorescence increase (CPM-PBP; [9]): 5%
% fluorescence increase (MDCC-PBP [1]; [10]): 3%

O=P(O)(O)OC[C@H]1OC(O)[C@H](O)[C@@H](O)[C@@H]1O (stereo partly shown) [Glucose-6-phosphate]
% fluorescence increase (CPM-PBP; [9]): 4%
% fluorescence increase (MDCC-PBP [1]; [10]): 3%

O=C1C=CC(=O)N1c1ccc(Nc2ccc3cc(S(=O)(=O)O)ccc3c2)cc1 [MIANS, 2[4(1-maleimidyl)anilino]naphthalene6-sulfonic acid]
fluorescence change using the Pi mop (PBP mutant D292C): 65%

CC(OP(=O)(O)OP(=O)(O)OP(=O)(O)OC[C@H]1O[C@@H](n2cnc3c(N)ncnc32)[C@H](O)[C@@H]1O)c1ccccc1[N+](=O)[O-] (stereo partly shown) [NPE-caged ATP, P^31-(2-nitrophenyl)ethyl ATP]
% fluorescence increase (MDCC-PBP [1]; addition 5 mM, preincubated with the Pi mop, 10 μM MDCC-PBP, 20 mM PIPES pH 7.0): 0%

O=P(O)(O)O [Pi, inorganic phosphate]
% fluorescence increase (CPM-PBP; pH 8): 65%
Km [2]: 34 µM
% fluorescence increase (MDCC-PBP [1]; pH 7): 430%

O=P(O)(O)OP(=O)(O)O [Pyrophosphate]
% fluorescence increase (CPM-PBP; pH 8): 5%
% fluorescence increase (MDCC-PBP [1]; pH 7): 6%

O=[As]([O-])([O-])O.[Na+].[Na+] [Sodium arsenate]
% fluorescence increase (CPM-PBP; [9]): 25%
% fluorescence increase (MDCC-PBP [1]; [12]): 313%
Kd (MDCC-PBP [3]): 3000 nM

O=S(=O)([O-])[O-].[Na+].[Na+] [Sodium sulphate]
% fluorescence increase (CPM-PBP; [11]): 0%
% fluorescence increase (MDCC-PBP [1]; addition 1 mM, 2 μM MDCC-PBP, 20 mM PIPES pH 7.0): 3%

Sodium vanadate
% fluorescence increase (CPM-PBP; [9]): -2%
% fluorescence increase (CPM-PBP; addition 1.1 mM, 6 μM CPM-PBP, 10 mM Tris.HCl pH 8.0): -11%
% fluorescence increase (MDCC-PBP [1]; [12]): 35%

B1: MDCC-PBP (conjugate, UniProt P0AG82 26-346, looked up)
Phosphate-binding protein PstS: EASLTGAGATFPAPVYAKWADTYQKETGNKVNYQGIGSSGGVKQIIANTVDFGASDAPLSDEKLAQEGLFQFPTVIGGVVLAVNIPGLKSGELVLDGKTLGDIYLGKIKKWDDEAIAKLNPGLKLPSQNIAVVRRADGSGTSFVFTSYLAKVNEEWKNNVGTGSTVKWPIGLGGKGNDGIAAFVQRLPGAIGYVEYAYAKQNNLAYTKLISADGKPVSPTEENFANAAKGADWSKTFAQDLTNQKGEDAWPITSTTFILIHKDQKKPEQGTEVLKFFDWAYKTGAKQANDLDYASLPDSVVEQVRAAWKTNIKDSSGKPLY
modifications: MDCC fluorophore label
% fluorescence increase ([4]; 10 mM PIPES (pH 7.0), 1M NaCl, 3.2 μM MDCC-PBP): 350%
% fluorescence increase ([4]; 10 mM PIPES (pH 7.0), 2 μM MDCC-PBP): 430%
% fluorescence increase ([4]; 10 mM Tris-HCl (pH 8.0), 2 μM MDCC-PBP): 405%
fluorescence change with excess Pi ([4]; pH 7.0, FIG. 2: 3.2 μM MDCC-PBP, 10 mM PIPES, 1 mM MgCl2, 22° C., Pi 50 μM): 5.3 fold
maximum percent increase of fluorescence ([4]; varies with Pi contamination and protein activity): 400-500%
Pi binding, best-fit single exponential ([5]; 0.1 μM MDCC-PBP, 0.25 μM Pi, 10 mM PIPES pH 7.0, 21° C.): 65.3 s⁻¹
dissociation (Pi release) rate of labelled PBP.Pi complex ([5]; 22° C., PIPES pH 7.0, 0.25 μM MDCC-PBP, 0.125 μM Pi mixed with excess wild-type PBP (1.25 to 10 μM)): 21.3 ± 0.1 s⁻¹ and 21.4 s⁻¹
k+ (Pi binding rate constant, one step binding model) ([5]; pH 7.0, [Pi]<5μM): 1.36e+08 M⁻¹ s⁻¹
k- (from fit of observed binding rates) ([5]; pH 7.0, [Pi]<5μM, prone to error): 43 s⁻¹
protein active (from linear fluorescence response to Pi) ([6]; FIG. 3, 20° C., 1 mM MgCl2, 10 mM PIPES pH 7.0): 75-80%
maximum fluorescence enhancement ([6]; FIG. 4, 25° C., 10 mM PIPES pH 7.0, 1 mM MgCl2, 0.28 μM MDCC-PBP): 415%
Kd ([6]; pH7.0): 30 nM
Kd ([6]; pH 8.0): 80 nM
stable on ice [7]: at least 5 days

B2: wild-type PBP: E. coli phosphate binding protein (PBP), unlabelled wild-type (protein, UniProt P0AG82 26-346, looked up)
Phosphate-binding protein PstS: B1 Phosphate-binding protein PstS
relative affinity for Pi versus the labeled mutant (MDCC-PBP) [8]: two-fold tighter
